From PubChem BioAssay (NCI)
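Cells were grown in 96-well plates and exposed to each compound for 48 hours at five concentrations; endpoints were interpolated linearly between bracketing concentrations, or set to the highest concentration if not reached. TGI is the concentration that stops growth completely.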

How the values were obtained:
Test in all cases: DTP human tumour cell line panel, 48 h
HT29 colon = test system: HT29 colon
SW-620 colon = test system: SW-620 colon
EKVX NSCLC = test system: EKVX NSCLC
OVCAR-4 ovarian = test system: OVCAR-4 ovarian
NCI-H522 lung = test system: NCI-H522 lung
UACC-62 melanoma = test system: UACC-62 melanoma
HCT-15 colon = test system: HCT-15 colon
SK-MEL-28 melanoma = test system: SK-MEL-28 melanoma
COLO 205 colon = test system: COLO 205 colon
SK-MEL-2 melanoma = test system: SK-MEL-2 melanoma
NCI-H23 lung = test system: NCI-H23 lung
SF-539 CNS = test system: SF-539 CNS
MDA-N = test system: MDA-N
MALME-3M melanoma = test system: MALME-3M melanoma
SR leukemia = test system: SR leukemia
SN12C renal = test system: SN12C renal
OVCAR-5 ovarian = test system: OVCAR-5 ovarian
LOX IMVI melanoma = test system: LOX IMVI melanoma
HCC-2998 colon = test system: HCC-2998 colon

| SMILES | TGI (HT29 colon) | TGI (SW-620 colon) | TGI (EKVX NSCLC) | TGI (OVCAR-4 ovarian) | TGI (NCI-H522 lung) | TGI (UACC-62 melanoma) | TGI (HCT-15 colon) | TGI (SK-MEL-28 melanoma) | TGI (COLO 205 colon) | TGI (SK-MEL-2 melanoma) | TGI (NCI-H23 lung) | TGI (SF-539 CNS) | TGI (MDA-N) | TGI (MALME-3M melanoma) | TGI (SR leukemia) | TGI (SN12C renal) | TGI (OVCAR-5 ovarian) | TGI (LOX IMVI melanoma) | TGI (HCC-2998 colon) |
| --- | --- | --- | --- | --- | --- | --- | --- | --- | --- | --- | --- | --- | --- | --- | --- | --- | --- | --- | --- |
| CC(NC1=CC(=O)c2cccnc2C1=O)C(O)c1ccccc1 (stereo not given) | 9.45 µM | 3.89 µM | 20.1 µM | 11.1 µM | 3.57 µM | 3.1 µM | 8.08 µM | 3.1 µM | 3.42 µM | 4.48 µM | 3.01 µM | 3.75 µM | 1.3 µM | 2.94 µM | > 23.1 µM | 3.04 µM | 4.69 µM | 3.16 µM | 10.8 µM |
| CCOC(=O)/C(C(=S)NCc1ccccc1)=C(/N)N1CCCC1 | > 100 µM | > 100 µM | > 100 µM | > 100 µM | > 100 µM | > 100 µM | > 100 µM | > 100 µM | > 100 µM | > 100 µM | > 100 µM | > 100 µM | > 100 µM | > 100 µM | > 100 µM | > 100 µM | > 100 µM | > 100 µM | > 100 µM |
| CC/C(Cl)=N\OC(=O)Nc1ccc(OC)c(C)c1 | 41.2 µM | > 68.8 µM | 10.1 µM | 36.5 µM | 4.18 µM | 28.9 µM | 34.5 µM | 62 µM | 31.4 µM | 49.9 µM | 36.5 µM | 42 µM | 41 µM | 26.6 µM | 26.9 µM | 32.4 µM | 71.6 µM | 31.1 µM | 43.2 µM |
| O=S(=O)(O)c1ccc2c(N=Nc3ccc(S(=O)(=O)O)c4ccccc34)c(O)c(S(=O)(=O)O)cc2c1 | > 100 µM | > 100 µM | > 100 µM | > 100 µM | > 100 µM | > 100 µM | > 100 µM | > 100 µM | > 100 µM | > 100 µM | > 100 µM | > 100 µM | > 100 µM | > 100 µM | > 100 µM | > 100 µM | > 100 µM | > 100 µM | > 100 µM |
| c1ccc(Cn2c(-c3ccc(-c4ccccc4)cc3)cc3ccccc32)cc1 | > 100 µM | > 100 µM | > 100 µM | > 100 µM | > 100 µM | > 100 µM | > 100 µM | > 100 µM | > 100 µM | > 100 µM | > 100 µM | > 100 µM | > 100 µM | > 100 µM | > 100 µM | > 100 µM | > 100 µM | > 100 µM | > 100 µM |
| COc1cc2cc3c4c(cc(OC)c(OC)c4c2cc1OC)CCN3C | > 37.5 µM | > 50 µM | > 50 µM | 12 µM | 23.9 µM | 14.3 µM | > 47.8 µM | > 50 µM | 39.6 µM | 30 µM | > 50 µM | 40.5 µM | > 50 µM | 24.9 µM | > 10.8 µM | > 50 µM | 49 µM | 16.7 µM | 33.1 µM |
| O=C(COc1ccccc1)N(C(=O)N1CCN(c2ccccc2)CC1)S(=O)(=O)c1ccccc1 | > 100 µM | > 100 µM | > 100 µM | > 100 µM | > 100 µM | > 100 µM | > 100 µM | > 100 µM | > 100 µM | > 100 µM | > 100 µM | > 100 µM | > 100 µM | > 100 µM | 45.4 µM | > 100 µM | > 100 µM | > 100 µM | > 100 µM |
| Cc1ccc(S(=O)(=O)N/N=C2\CCCCCCCCCCC2CN(C)C)cc1 (stereo not given) | 29.5 µM | 31.8 µM | 70 µM | 68.3 µM | 27.4 µM | 32.3 µM | 29 µM | 28.2 µM | 31.9 µM | 22.8 µM | 55.8 µM | 31.6 µM | 32.8 µM | 30.9 µM | > 100 µM | 44.4 µM | 30.9 µM | 31.5 µM | 20.8 µM |
| CCOC(=O)C1C(c2ccc(OC)cc2)c2c([nH][nH]c2=O)CC1(C)O (stereo not given) | > 100 µM | > 100 µM | > 100 µM | > 100 µM | > 100 µM | > 100 µM | > 100 µM | > 100 µM | > 100 µM | > 100 µM | > 100 µM | > 100 µM | > 100 µM | > 100 µM | > 100 µM | > 100 µM | > 100 µM | > 100 µM | > 100 µM |
| CCOC(=O)CCC(NC(=O)c1ccc(Oc2nc3c(N)cc(C(F)(F)F)cc3nc2-c2ccccc2)cc1)C(=O)OCC (stereo not given) | > 100 µM | > 100 µM | > 100 µM | > 100 µM | 45.4 µM | > 100 µM | > 100 µM | > 100 µM | > 100 µM | > 30.7 µM | > 59.3 µM | 8.48 µM | > 100 µM | 91.9 µM | > 100 µM | > 100 µM | > 100 µM | > 100 µM | > 100 µM |
